Laboratory results as given in ChEMBL document CHEMBL4483862, “Open-source discovery of chemical leads for next-generation chemoprotective antimalarials” (2018).

System: Plasmodium berghei
Test: Luciferase/luciferin-expressing antifolate-resistant parasites were used to infect a culture of HepG2 cells that were pre-incubated with compounds. Infected hepatocytes emit light due to the luciferase reaction. Assay results are presented as the percent inhibition of light emission compared to control. […]
Assay type: functional
Conditions: sporozoite; for IC90: read-out: LUCIFERASE INFECTION ASSAY - IC90
[1] = read-out: LUCIFERASE INFECTION ASSAY - IC50

Structure (SMILES): N#C/C(=C\c1ccc(Cl)cc1Cl)c1ccc(O)cc1
- IC50 (HEPG2TOX_HILL_SLOPE 4.92, HEPG2TOX_R_SQUARED 0.97, PBLUC_HILL_SLOPE 12.5, PBLUC_R_SQUARED 0.376, read-out: LUCIFERASE INFECTION ASSAY - IC50): 10.5 µM
- IC90: > 11.4 µM

Structure (SMILES): Cc1csc2ncnc(N3CCN(C(=O)Nc4ccc(Cl)c(Cl)c4)CC3)c12
- IC50 (HEPG2TOX_HILL_SLOPE 0.318, HEPG2TOX_R_SQUARED 0.0791, PBLUC_HILL_SLOPE 1.99, PBLUC_R_SQUARED 0.376, read-out: LUCIFERASE INFECTION ASSAY - IC50): > 7.81 µM
- IC90: > 7.81 µM

Structure (SMILES): COC(=O)CSCCc1nc(-c2ccc(C(F)(F)F)cc2)cs1
- IC50 (PBLUC_HILL_SLOPE 1.19, PBLUC_R_SQUARED 0.68, read-out: LUCIFERASE INFECTION ASSAY - IC50): 1.39 µM
- IC90: 8.8 µM

Structure (SMILES): CC(=O)Nc1cccc(-c2ccc3ncc(-c4ccc5c(c4)OCO5)n3n2)c1
- IC50 (HEPG2TOX_HILL_SLOPE 2.37, HEPG2TOX_R_SQUARED 0.964, PBLUC_HILL_SLOPE 13.4, PBLUC_R_SQUARED 0.492, read-out: LUCIFERASE INFECTION ASSAY - IC50): 3.34 µM
- IC90: 3.94 µM

Structure (SMILES): COc1ccc(-c2cnc3cnc(-c4cccc(NC(C)=O)c4)cn23)cc1
- IC50 (PBLUC_HILL_SLOPE 2.77, PBLUC_R_SQUARED 0.737, read-out: LUCIFERASE INFECTION ASSAY - IC50): 4.22 µM
- IC90: > 9.21 µM

Structure (SMILES): CCN(C(=O)CSc1nc2cc(C(=O)O)ccc2c(=O)n1Cc1ccccc1)c1ccccc1
- IC50 [1]: > 10 µM
- IC90: > 10 µM

Structure (SMILES): COc1ccc(C(c2ccc(N(C)C)cc2)c2ccc(N(C)C)cc2)c(C)c1C
- IC50 [1]: > 8.49 µM
- IC90: > 8.49 µM

Structure (SMILES): COc1ccc(Cl)cc1NC(=O)N1CCC(Cc2ccccc2)CC1
- IC50 [1]: > 9.2 µM
- IC90: > 9.2 µM

Structure (SMILES): COc1cccc(-c2ccc3nnc(-c4ccc5c(c4)OCO5)n3c2)c1
- IC50 (HEPG2TOX_HILL_SLOPE 1.68, HEPG2TOX_R_SQUARED 0.984, PBLUC_HILL_SLOPE 2.05, PBLUC_R_SQUARED 0.784, read-out: LUCIFERASE INFECTION ASSAY - IC50): 0.337 µM
- IC90: 0.981 µM

Structure (SMILES): NC(Cc1ccc(C(F)(F)F)cc1)c1csc(NC(=O)Nc2ccccc2Cc2ccccc2)n1 (configuration not stated)
- IC50 (PBLUC_HILL_SLOPE 25.9, PBLUC_R_SQUARED 0.261, read-out: LUCIFERASE INFECTION ASSAY - IC50): 5.82 µM
- IC90: 6.33 µM

Structure (SMILES): Cc1ccc(Nc2nccc(C(F)(F)F)n2)cc1S(=O)(=O)N(C)C
- IC50 (HEPG2TOX_HILL_SLOPE 1.28, HEPG2TOX_R_SQUARED 0.583, PBLUC_HILL_SLOPE 1.84, 1.48, PBLUC_R_SQUARED 0.674, 0.430, read-out: LUCIFERASE INFECTION ASSAY - IC50): 4.96 µM
- IC90: > 10 µM

Structure (SMILES): COC(=O)c1cc(Br)ccc1NC(=O)CCNC(=O)c1cccc(C)c1
- IC50 [1]: > 10 µM
- IC90: > 10 µM

Structure (SMILES): Fc1ccc(Nc2nccc3c2ncn3Cc2ccccc2)cc1Cl
- IC50 (PBLUC_HILL_SLOPE 1.48, PBLUC_R_SQUARED 0.272, read-out: LUCIFERASE INFECTION ASSAY - IC50): 3.67 µM
- IC90: > 10 µM

Structure (SMILES): CCc1ccc(S(=O)(=O)Nc2cc(Cl)c(O)c3ccccc23)cc1
- IC50 (PBLUC_HILL_SLOPE 0.706, PBLUC_R_SQUARED 0.416, read-out: LUCIFERASE INFECTION ASSAY - IC50): 1.42 µM
- IC90: > 10 µM

Structure (SMILES): O=C(Nc1ccc(SC(F)(F)F)cc1)N1CCN(c2nc3ccc(Cl)cc3s2)CC1
- IC50 (HEPG2TOX_HILL_SLOPE 11, HEPG2TOX_R_SQUARED 0.778, PBLUC_HILL_SLOPE 2.23, PBLUC_R_SQUARED 0.377, read-out: LUCIFERASE INFECTION ASSAY - IC50): 3.77 µM
- IC90: > 6.98 µM

Structure (SMILES): CN(C)c1cccc(-c2cnc3cnc(-c4ccc(C(=O)NC5CC5)cc4)cn23)c1
- IC50 (PBLUC_HILL_SLOPE 2.95, PBLUC_R_SQUARED 0.0505, read-out: LUCIFERASE INFECTION ASSAY - IC50): 7.62 µM
- IC90: > 8.3 µM

Structure (SMILES): CCN(CC)S(=O)(=O)c1ccc2[nH]c(=O)cc(C(=O)Nc3cc(Cl)c(OC)cc3OC)c2c1
- IC50 [1]: > 10 µM
- IC90: > 10 µM

Structure (SMILES): CCOC(=O)c1c(NC(=O)CNCc2ccccn2)sc(CC)c1C
- IC50 (HEPG2TOX_HILL_SLOPE 2.14, HEPG2TOX_R_SQUARED 0.831, PBLUC_HILL_SLOPE 2.51, PBLUC_R_SQUARED 0.552, read-out: LUCIFERASE INFECTION ASSAY - IC50): 2.7 µM
- IC90: 6.49 µM

Structure (SMILES): O=C(Nc1ccc(SC(F)(F)F)cc1)Nc1ccc(Sc2ccc(Cl)cc2)nc1
- IC50 (HEPG2TOX_HILL_SLOPE 3.12, HEPG2TOX_R_SQUARED 0.943, PBLUC_HILL_SLOPE 7.91, PBLUC_R_SQUARED 0.378, read-out: LUCIFERASE INFECTION ASSAY - IC50): 3.97 µM
- IC90: 5.24 µM

Structure (SMILES): CCN1CCN(c2cc(C(C)(C)C)nc3c(-c4ccccc4)cnn23)CC1
- IC50 (PBLUC_HILL_SLOPE 3.68, PBLUC_R_SQUARED 0.383, read-out: LUCIFERASE INFECTION ASSAY - IC50): 6.05 µM
- IC90: > 9.08 µM

Structure (SMILES): Cc1cc(C(C)(C)C)cc(C)c1CCNC(=O)NCCNC(=O)c1ccco1
- IC50 (PBLUC_HILL_SLOPE 2.38, PBLUC_R_SQUARED 0.642, read-out: LUCIFERASE INFECTION ASSAY - IC50): 5.63 µM
- IC90: > 10 µM

Structure (SMILES): Cc1cccc(CNc2nc3cnc(-c4ccccc4)cc3n2C)c1
- IC50 [1]: > 10 µM
- IC90: > 10 µM

Structure (SMILES): Cc1noc(C)c1C(=O)OCC(=O)c1cc(C)n(-c2ccccc2F)c1C
- IC50 (PBLUC_HILL_SLOPE 1.73, PBLUC_R_SQUARED 0.622, read-out: LUCIFERASE INFECTION ASSAY - IC50): 4.2 µM
- IC90: > 10 µM

Structure (SMILES): COc1ccc(-[n+]2c(C)cn3c2CCc2ccccc2-3)cc1
- IC50 (HEPG2TOX_HILL_SLOPE 1.53, HEPG2TOX_R_SQUARED 0.982, PBLUC_HILL_SLOPE 13.1, PBLUC_R_SQUARED 0.299, read-out: LUCIFERASE INFECTION ASSAY - IC50): 3.35 µM
- IC90: 3.96 µM

Structure (SMILES): COCCCn1c(C)cc(C(=O)CSc2nc(C)nc3c2c(=O)n(C)c(=O)n3CC(C)C)c1C
- IC50 [1]: > 10 µM
- IC90: > 10 µM

Structure (SMILES): CCc1c(C)sc2nc(SCC(=O)Nc3cc(C)on3)n(-c3ccc(O)cc3C)c(=O)c12
- IC50 [1]: 3.89 µM
- IC90: 8.83 µM

Structure (SMILES): COC(=O)c1cc2c(N)c(C(=O)c3cc(C#N)c(SC)nc3C)sc2nc1C
- IC50 [1]: 5.83 µM
- IC90: > 10 µM

Structure (SMILES): COc1ccc(C(=O)/C=C/c2cccc3cccnc23)cc1Br
- IC50 (PBLUC_HILL_SLOPE 24.4, PBLUC_R_SQUARED 0.237, read-out: LUCIFERASE INFECTION ASSAY - IC50): > 10 µM
- IC90: > 10 µM

Structure (SMILES): C[C@H](NC(=O)c1sc2ccccc2c1Cl)c1nnc2ccccn12
- IC50 [1]: > 9.25 µM
- IC90: > 9.25 µM

Structure (SMILES): CN1/C(=C\C=N\NC(=O)c2cccs2)C(C)(C)c2ccccc21
- IC50 (PBLUC_HILL_SLOPE 3.23, PBLUC_R_SQUARED 0.426, read-out: LUCIFERASE INFECTION ASSAY - IC50): 4.25 µM
- IC90: 8.4 µM

Structure (SMILES): CCN(CC)S(=O)(=O)c1ccc(Cl)c(NC(=O)COC(=O)c2c3c(nc4ccccc24)CCC(C)C3)c1 (configuration not stated)
- IC50 (HEPG2TOX_HILL_SLOPE 20.1, HEPG2TOX_R_SQUARED 0.334, PBLUC_HILL_SLOPE 11.1, PBLUC_R_SQUARED 0.597, read-out: LUCIFERASE INFECTION ASSAY - IC50): 3.46 µM
- IC90: 4.21 µM

Structure (SMILES): CNc1nc2cnc(Nc3ccccc3)cc2n1Cc1ccco1
- IC50 (HEPG2TOX_HILL_SLOPE 3.53, HEPG2TOX_R_SQUARED 0.949, PBLUC_HILL_SLOPE 2.74, PBLUC_R_SQUARED 0.404, read-out: LUCIFERASE INFECTION ASSAY - IC50): 4.93 µM
- IC90: > 10 µM

Structure (SMILES): N#CC(=C1NS(=O)(=O)c2ccccc21)c1nc(C23CC4CC(CC(C4)C2)C3)cs1
- IC50 (FFLUC_HILL_SLOPE 0.216, FFLUC_R_SQUARED 0.688, PBLUC_HILL_SLOPE 0.978, PBLUC_R_SQUARED 0.875, read-out: LUCIFERASE INFECTION ASSAY - IC50): 0.208 µM
- IC90: 1.97 µM

Structure (SMILES): NC(=S)COc1cc(Cl)cc(Cl)c1
- IC50 (HEPG2TOX_HILL_SLOPE 8.05, HEPG2TOX_R_SQUARED 0.893, PBLUC_HILL_SLOPE 16, PBLUC_R_SQUARED 0.105, read-out: LUCIFERASE INFECTION ASSAY - IC50): 13.4 µM
- IC90: > 14 µM

Structure (SMILES): O/N=C1\CC(c2ccccc2)Sc2ccccc21 (configuration not stated)
- IC50 (PBLUC_HILL_SLOPE 0.783, PBLUC_R_SQUARED 0.658, read-out: LUCIFERASE INFECTION ASSAY - IC50): 3.88 µM
- IC90: > 12.9 µM

Structure (SMILES): O=C(CNc1ccc(Oc2ccc(Br)cc2)cc1)NC1CC1
- IC50 [1]: > 10 µM
- IC90: > 10 µM

Structure (SMILES): Cn1ccc2cc(-c3cnc4cnc(-c5ccc(F)c(Cl)c5)cn34)ccc21
- IC50 (HEPG2TOX_HILL_SLOPE 3.52, HEPG2TOX_R_SQUARED 0.929, PBLUC_HILL_SLOPE 14.4, PBLUC_R_SQUARED 0.566, read-out: LUCIFERASE INFECTION ASSAY - IC50): 3.05 µM
- IC90: 3.55 µM

Structure (SMILES): Oc1ccc(Br)cc1/C=N/NC(=S)NC1CC2CCC1C2 (configuration not stated)
- IC50 (HEPG2TOX_HILL_SLOPE 9.58, HEPG2TOX_R_SQUARED 0.779, PBLUC_HILL_SLOPE 13.3, PBLUC_R_SQUARED 0.143, read-out: LUCIFERASE INFECTION ASSAY - IC50): 7.57 µM
- IC90: 8.93 µM

Structure (SMILES): C/C(=N\NC(=O)c1sc2ccccc2c1Cl)c1ccc(C(C)(C)C)cc1
- IC50 (PBLUC_HILL_SLOPE 2.25, PBLUC_R_SQUARED 0.703, read-out: LUCIFERASE INFECTION ASSAY - IC50): 4.74 µM
- IC90: > 10 µM

Structure (SMILES): COc1ccc(/C=C/c2nc3cc(C)c(C)cc3s2)c(OC)c1OC
- IC50 [1]: 4.27 µM
- IC90: 8.68 µM

Structure (SMILES): CO/N=C1\CCCc2c(C(=O)N/N=C/c3ccccc3Cl)sc(SC)c21
- IC50 (FFLUC_HILL_SLOPE 19.7, FFLUC_R_SQUARED 0.147, HEPG2TOX_HILL_SLOPE 0.857, HEPG2TOX_R_SQUARED 0.906, PBLUC_HILL_SLOPE 1.47, PBLUC_R_SQUARED 0.897, read-out: LUCIFERASE INFECTION ASSAY - IC50): 0.406 µM
- IC90: 1.81 µM
